# From PMC9085577, “Discovery of a Potent and Orally Active Dual GPBAR1/CysLT1R Modulator for the Treatment of Metabolic Fatty Liver Disease” (Frontiers in Pharmacology, 2022)
# Test system: liver transcriptome
# Experiment: AmpliSeq liver transcriptome of HFD-F mice
# Type: in vivo
# Conditions: liver
# From the text: C57BL/6J male mice were fed a high fat diet (HFD) containing 59 KJ% fat plus 1% cholesterol, w/o sugar (ssniff ® EF R/M acc. D12330 mod. 22,7 ME/kg) and fructose (HFD-F) in drinking water (42 g/L), or normal chow diet for 61 days. Food intake was estimated as the difference of weight between the offered and the remnant amount of food at 3-days intervals. The food was provided as pressed pellets and the residual spillage was not considered. After 7 days, HFD-F mice were randomized to receive HFD-F alone or in combination with compound 2 (30 mg/kg/day) by gavage until the end of the experiment. Doses of each agent were chosen according to previously published data. Mice were housed under controlled temperature (22°C) and photoperiods (12:12-h light/dark cycle), allowed unrestricted access to standard mouse chow and tap water. The experimental protocol was approved by the Animal Care and Use Committee of the University of Perugia and by the Italian Minister of Health and Istituto Superiore di Sanità (Italy) and was in agreement with the European guidelines for use of experimental animals (permission n. 583/2017-PR). The general health of the animals was monitored daily by the Veterinarian in the animal facility. At the day of sacrifice, fed mice were deeply anesthetized with a mixture of tiletamine hypochloride and zolazepam hypochloride/xylazine at a dose of 50/5 mg/kg and sacrificed before 12 a.m.
# High-quality RNA was extracted from mice livers, using the Direct-zol™ RNA MiniPrep w/Zymo-Spin™ IIC Columns (Zymo Research, Irvine, CA) according to the manufacturer’s instructions. RNA quality and quantity were assessed with the Qubit® RNA HS Assay Kit and a Qubit 3.0 fluorometer (Invitrogen, Carlsbad, CA) followed by agarose gel electrophoresis. Libraries were generated using the Ion AmpliSeq™ Transcriptome Mouse Gene Expression Core Panel and Chef-Ready Kit (Comprehensive evaluation of AmpliSeq transcriptome, a whole transcriptome RNA sequencing methodology) (Thermo Fisher Scientific, Waltham, MA). Briefly, 10 ng of RNA was reverse transcribed with SuperScript™ Vilo™ cDNA Synthesis Kit (Thermo Fisher Scientific, Waltham, MA) before library preparation on the Ion Chef™ instrument (Thermo Fisher Scientific, Waltham, MA). The resulting cDNA was amplified to prepare barcoded libraries using the Ion Code™ PCR Plate, and the Ion AmpliSeq™ Transcriptome Mouse Gene Expression Core Panel (Thermo Fisher Scientific, Waltham, MA), Chef-Ready Kit, according to the manufacturer’s instructions. Barcoded libraries were combined to a final concentration of 100 p.m., and used to prepare Template-Positive Ion Sphere™ (Thermo Fisher Scientific, Waltham, MA) Particles to load on Ion 540™ Chips, using the Ion 540™ Kit-Chef (Thermo Fisher Scientific, Waltham, MA). Sequencing was performed on an Ion S5™ Sequencer with Torrent Suite™ Software v6 (Thermo Fisher Scientific, Waltham, MA). The analyses were performed with a range of fold <−2 and >+2 and a p value <0.05, using Transcriptome Analysis Console Software (version 4.0.1), certified for AmpliSeq analysis (Thermo-Fisher). The transcriptomic data have been deposited as dataset on Mendeley data repository (reference number linking to the repository: Fiorucci, Stefano; Biagioli, Michele; Marchianò, Silvia; Di Giorgio, Cristina (2021), “Discovery of potent dual GPBAR1/CysLT1R modulator for the treatment of metabolic fatty liver disease,” Mendeley Data, V1, doi: 10.17632/6dnrk9fc72.1).
smiles,measurement,setting,value
"O=C(O)c1cccc(-c2ccc(OCc3ccc4ccccc4n3)cc2)c1 [Compound 2, 4'-(quinolin-2-ylmethoxy)-[1,1′-biphenyl]-3-carboxylic acid]",Uhrf1 transcript Avg (log2),HFD-F + compound 2,0.79 log2
same,Upp2 transcript Avg (log2),HFD-F + compound 2,9.06 log2
same,Usp2 transcript Avg (log2),HFD-F + compound 2,5.61 log2
same,Wrn transcript Avg (log2),HFD-F + compound 2,3.27 log2
same,Zfp101 transcript Avg (log2),HFD-F + compound 2,1.28 log2
same,Zfp445 transcript Avg (log2),HFD-F + compound 2,6.23 log2
same,1810011O10Rik transcript Fold Change,HFD-F + compound 2 vs HFD-F,-2.01
same,2310001K24Rik transcript Fold Change,HFD-F + compound 2 vs HFD-F,2.31
same,2310039H08Rik transcript Fold Change,HFD-F + compound 2 vs HFD-F,-2.25
same,4833423E24Rik transcript Fold Change,HFD-F + compound 2 vs HFD-F,2.15
same,6430573F11Rik transcript Fold Change,HFD-F + compound 2 vs HFD-F,-2.15
same,AW549542 transcript Fold Change,HFD-F + compound 2 vs HFD-F,2.59
same,Abcb1a transcript Fold Change,HFD-F + compound 2 vs HFD-F,2.07
same,Acod1 transcript Fold Change,HFD-F + compound 2 vs HFD-F,-7.35
same,Acot3 transcript Fold Change,HFD-F + compound 2 vs HFD-F,2.07
same,Adam8 transcript Fold Change,HFD-F + compound 2 vs HFD-F,-2.4
same,Adam11 transcript Fold Change,HFD-F + compound 2 vs HFD-F,2.06
same,Anxa2 transcript Fold Change,HFD-F + compound 2 vs HFD-F,-2.16
same,Apcs transcript Fold Change,HFD-F + compound 2 vs HFD-F,-2.14
same,Arntl transcript Fold Change,HFD-F + compound 2 vs HFD-F,-2.68
same,Arsg transcript Fold Change,HFD-F + compound 2 vs HFD-F,-2.22
same,Atp1a3 transcript Fold Change,HFD-F + compound 2 vs HFD-F,-2.15
same,Aurka transcript Fold Change,HFD-F + compound 2 vs HFD-F,-2.11
same,Avpr1a transcript Fold Change,HFD-F + compound 2 vs HFD-F,-2.31
same,Bcat1 transcript Fold Change,HFD-F + compound 2 vs HFD-F,-2.27
same,C920009B18Rik transcript Fold Change,HFD-F + compound 2 vs HFD-F,-2.05
same,Cabyr transcript Fold Change,HFD-F + compound 2 vs HFD-F,2.35
same,Capn11 transcript Fold Change,HFD-F + compound 2 vs HFD-F,3.56
same,Ccl2 transcript Fold Change,HFD-F + compound 2 vs HFD-F,–9.45
same,Ccl3 transcript Fold Change,HFD-F + compound 2 vs HFD-F,–45.68
same,Ccl4 transcript Fold Change,HFD-F + compound 2 vs HFD-F,-3.76
same,Ccl7 transcript Fold Change,HFD-F + compound 2 vs HFD-F,-5.24
same,Ccl9 transcript Fold Change,HFD-F + compound 2 vs HFD-F,-2.83
same,Cd9 transcript Fold Change,HFD-F + compound 2 vs HFD-F,-2.05
same,Cd14 transcript Fold Change,HFD-F + compound 2 vs HFD-F,-2.38
same,Cd36 transcript Fold Change,HFD-F + compound 2 vs HFD-F,-2.5
same,Cd63 transcript Fold Change,HFD-F + compound 2 vs HFD-F,-2.18
same,Cdk1 transcript Fold Change,HFD-F + compound 2 vs HFD-F,-2.15
same,Cdkl2 transcript Fold Change,HFD-F + compound 2 vs HFD-F,-2.13
same,Cdkn1a transcript Fold Change,HFD-F + compound 2 vs HFD-F,-7.58
same,Cdkn3 transcript Fold Change,HFD-F + compound 2 vs HFD-F,-2.22
same,Ces2b transcript Fold Change,HFD-F + compound 2 vs HFD-F,3.35
same,Cetn4 transcript Fold Change,HFD-F + compound 2 vs HFD-F,2.21
same,Chka transcript Fold Change,HFD-F + compound 2 vs HFD-F,-3.91
same,Chrna4 transcript Fold Change,HFD-F + compound 2 vs HFD-F,-3.1
same,Cidea transcript Fold Change,HFD-F + compound 2 vs HFD-F,-4.55
same,Cidec transcript Fold Change,HFD-F + compound 2 vs HFD-F,-3.63
same,Cirbp transcript Fold Change,HFD-F + compound 2 vs HFD-F,2.31
same,Ckap2 transcript Fold Change,HFD-F + compound 2 vs HFD-F,-2.19
same,Clec4e transcript Fold Change,HFD-F + compound 2 vs HFD-F,-2.29
same,Clec4d transcript Fold Change,HFD-F + compound 2 vs HFD-F,-2.99
same,Col27a1 transcript Fold Change,HFD-F + compound 2 vs HFD-F,3.11
same,Csf3 transcript Fold Change,HFD-F + compound 2 vs HFD-F,-6.94
same,Cxcl2 transcript Fold Change,HFD-F + compound 2 vs HFD-F,–12.23
same,Cyp1a2 transcript Fold Change,HFD-F + compound 2 vs HFD-F,4.77
same,Cyp2a5 transcript Fold Change,HFD-F + compound 2 vs HFD-F,2.79
same,Cyp7a1 transcript Fold Change,HFD-F + compound 2 vs HFD-F,3.98
same,Cyp17a1 transcript Fold Change,HFD-F + compound 2 vs HFD-F,-2.12
same,D17H6S56E-5 transcript Fold Change,HFD-F + compound 2 vs HFD-F,-2.1
same,Dbp transcript Fold Change,HFD-F + compound 2 vs HFD-F,3.21
same,Defb1 transcript Fold Change,HFD-F + compound 2 vs HFD-F,-2.44
same,Derl2 transcript Fold Change,HFD-F + compound 2 vs HFD-F,-2.01
same,Dhrs9 transcript Fold Change,HFD-F + compound 2 vs HFD-F,-2.42
same,Dtx4 transcript Fold Change,HFD-F + compound 2 vs HFD-F,-2.1
same,Dusp8 transcript Fold Change,HFD-F + compound 2 vs HFD-F,-2.11
same,Egr1 transcript Fold Change,HFD-F + compound 2 vs HFD-F,-4.09
same,Ell transcript Fold Change,HFD-F + compound 2 vs HFD-F,2.35
same,Elovl3 transcript Fold Change,HFD-F + compound 2 vs HFD-F,-2.38
same,Elovl5 transcript Fold Change,HFD-F + compound 2 vs HFD-F,-2.41
same,Ephb2 transcript Fold Change,HFD-F + compound 2 vs HFD-F,-2.63
same,Epm2aip1 transcript Fold Change,HFD-F + compound 2 vs HFD-F,-2.65
same,Fam57a transcript Fold Change,HFD-F + compound 2 vs HFD-F,2.55
same,Fgf21 transcript Fold Change,HFD-F + compound 2 vs HFD-F,-6.9
same,Fxyd2 transcript Fold Change,HFD-F + compound 2 vs HFD-F,-2.25
same,Gdf15 transcript Fold Change,HFD-F + compound 2 vs HFD-F,-3.99
same,Glipr1 transcript Fold Change,HFD-F + compound 2 vs HFD-F,-2.13
same,Glipr2 transcript Fold Change,HFD-F + compound 2 vs HFD-F,-2.29
same,Gm16063 transcript Fold Change,HFD-F + compound 2 vs HFD-F,2.05
same,Gm30692 transcript Fold Change,HFD-F + compound 2 vs HFD-F,-2.13
same,Gm31555 transcript Fold Change,HFD-F + compound 2 vs HFD-F,2.49
